Measured values from ChEMBL document CHEMBL6103654, “Design, Biological Characterization, and Discovery of Capromorelin Derivatives as Oral Growth Hormone Secretagogue Receptor Type 1a Agonist for the Treatment of Growth Hormone Deficiency” (J Med Chem, 2025).

Tests used:
CHO [1] = assay: Agonist activity at dog GHSR expressed in CHO cells at maximum concentration incubated for 60 min by FLIPR assay relative to control; format: cell-based; details: Canis lupus familiaris, filed as agonist
[2] = Agonist activity at human GHSR expressed in CHO cells incubated for 60 min by FLIPR assay; format: cell-based; details: 1 h
[3] = Agonist activity at dog GHSR expressed in CHO cells incubated for 60 min by FLIPR assay; format: cell-based; details: 1 h
[4] = Agonist activity at monkey GHSR expressed in CHO cells incubated for 60 min by FLIPR assay; format: cell-based; details: Macaca mulatta, 1 h
[5] = target: Growth hormone secretagogue receptor type 1 (Rattus norvegicus) (UniProt O08725); assay: Agonist activity at rat GHSR expressed in CHO cells at maximum concentration incubated for 60 min by FLIPR assay relative to control; format: functional, cell-based; details: filed as agonist
Growth hormone secretagogue receptor type 1 (Rattus norvegicus), sequence (O08725 whole entry): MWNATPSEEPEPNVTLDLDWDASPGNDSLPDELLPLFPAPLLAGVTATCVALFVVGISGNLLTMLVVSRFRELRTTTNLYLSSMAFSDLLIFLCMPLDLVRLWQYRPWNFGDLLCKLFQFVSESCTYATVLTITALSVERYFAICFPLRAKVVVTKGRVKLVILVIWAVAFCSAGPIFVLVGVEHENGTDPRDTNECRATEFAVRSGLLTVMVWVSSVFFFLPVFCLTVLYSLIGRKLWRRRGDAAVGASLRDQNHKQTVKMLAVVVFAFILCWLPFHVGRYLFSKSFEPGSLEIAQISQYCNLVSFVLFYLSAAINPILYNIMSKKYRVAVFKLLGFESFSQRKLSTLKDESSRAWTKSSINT

[6] = target: Growth hormone secretagogue receptor type 1 (Rattus norvegicus, UniProt O08725); assay: Agonist activity at rat GHSR expressed in CHO cells incubated for 60 min by FLIPR assay; format: functional, cell-based
Growth hormone secretagogue receptor type 1, sequence (O08725 whole entry): as above

CHO [7] = assay: Agonist activity at monkey GHSR expressed in CHO cells at maximum concentration incubated for 60 min by FLIPR assay relative to control; format: cell-based; details: Macaca mulatta, filed as agonist
CHO [8] = assay: Agonist activity at human GHSR expressed in CHO cells at maximum concentration incubated for 60 min by FLIPR assay relative to control; format: cell-based
[9] = Volume of distribution in male Sprague-Dawley rat at 1 mg/kg, iv administered as single dose measured after 4 hrs; format: ADME, organism-based; details: in vivo
[10] = AUC in male Sprague-Dawley rat at 2 mg/kg, po administered as single dose measured after 4 hrs; format: ADME, organism-based; details: in vivo
[11] = Tmax in male Sprague-Dawley rat at 2 mg/kg, po administered as single dose measured after 4 hrs; format: ADME, organism-based; details: in vivo
[12] = Elimination half life in male Sprague-Dawley rat at 1 mg/kg, iv administered as single dose measured after 4 hrs; format: ADME, organism-based; details: in vivo, read-out: beta t1/2 (converted)
[13] = Oral bioavailability in male Sprague-Dawley rat at 2 mg/kg administered as single dose measured after 4 hrs; format: ADME, organism-based; details: in vivo
[14] = Cmax in male Sprague-Dawley rat at 2 mg/kg, po administered as single dose measured after 4 hrs; format: ADME, organism-based; details: in vivo
[15] = Elimination half life in male Sprague-Dawley rat at 2 mg/kg, po administered as single dose measured after 4 hrs; format: ADME, organism-based; details: in vivo, read-out: beta t1/2 (converted)
[16] = Clearance in male Sprague-Dawley rat plasma at 1 mg/kg, iv administered as single dose measured after 4 hrs; format: ADME, organism-based
Rattus norvegicus [17] = assay: Induction of growth hormone level in Juvenile Sprague-Dawley rat blood at 0.1 mg/kg, po administered as single dose measured immediately by ELISA method (reference value: 28.5+/-8.7 ng/mL); format: functional
Rattus norvegicus [18] = assay: Induction of growth hormone level in Juvenile Sprague-Dawley rat blood at 0.1 mg/kg, po administered as single dose measured after 1 hr by ELISA method (reference value: 45.2+/-12.5 ng/mL); format: functional
Rattus norvegicus [19] = assay: Induction of growth hormone level in Juvenile Sprague-Dawley rat blood at 0.1 mg/kg, po administered as single dose measured after 20 mins by ELISA method (reference value: 29.1+/-8.6 ng/mL); format: functional
Rattus norvegicus [20] = assay: Induction of growth hormone level in adult Sprague-Dawley rat blood at 0.5 mg/kg, po administered as single dose measured after 10 mins by ELISA method (reference value: 13.7+/-7.2 ng/mL); format: functional
Rattus norvegicus [21] = assay: Induction of growth hormone level in adult Sprague-Dawley rat blood at 0.5 mg/kg, po administered as single dose measured after 40 mins by ELISA method (reference value: 14.4+/-6.9 ng/mL); format: functional
Rattus norvegicus [22] = assay: Induction of growth hormone level in Juvenile Sprague-Dawley rat blood at 0.1 mg/kg, po administered as single dose measured after 4 hrs by ELISA method (reference value: 32.5+/-4.5 ng/mL); format: functional
Rattus norvegicus [23] = assay: Induction of growth hormone level in Juvenile Sprague-Dawley rat blood at 0.1 mg/kg, po administered as single dose measured after 40 mins by ELISA method (reference value: 40.1+/-11.0 ng/mL); format: functional
Rattus norvegicus [24] = assay: Induction of growth hormone level in Juvenile Sprague-Dawley rat blood by measuring AUC(0 to 40 mins) at 0.1 mg/kg, po administered as single dose by ELISA method (reference value: 20.2+/-4.3 ng/mL); format: functional, organism-based; details: time 4.0 hrs
Rattus norvegicus [25] = assay: Induction of growth hormone level in Juvenile Sprague-Dawley rat blood at 0.1 mg/kg, po administered as single dose measured after 2 hrs by ELISA method (reference value: 26.5+/-7.3 ng/mL); format: functional
Rattus norvegicus [26] = assay: Induction of growth hormone level in Juvenile Sprague-Dawley rat blood at 0.1 mg/kg, po administered as single dose measured after 10 mins by ELISA method (reference value: 23.2+/-5.6 ng/mL); format: functional
Rattus norvegicus [27] = assay: Induction of growth hormone level in adult Sprague-Dawley rat blood at 0.5 mg/kg, po administered as single dose measured after 20 mins by ELISA method (reference value: 4.9+/-1.1 ng/mL); format: functional
Rattus norvegicus [28] = assay: Induction of growth hormone level in adult Sprague-Dawley rat blood at 0.5 mg/kg, po administered as single dose measured immediately by ELISA method (reference value: 12.6+/-4.4 ng/mL); format: functional
Rattus norvegicus [29] = assay: Induction of growth hormone level in adult Sprague-Dawley rat blood by measuring AUC(0 to 40 mins) at 0.5 mg/kg, po administered as single dose by ELISA method (reference value: 7.0+/-1.7 ng/mL); format: functional, organism-based

CN1N=C2CCN(C(=O)[C@@H](COCc3ccccc3)NC(=O)C(C)(C)N)C[C@@]2(Cc2ccccc2)C1=O [CAPROMORELIN]
Activity (CHO [1]): 155% | EC50 [2]: 1.37 nM | EC50 [3]: 0.118 nM | EC50 [4]: 0.074 nM | Activity [5]: 111% | EC50 [6]: 0.017 nM | Activity (CHO [7]): 109% | Activity (CHO [8]; filed as agonist): 119%

CC(C)(N)C(=O)N[C@H](COCc1ccccc1)C(=O)N1CCC2=NN(C(F)(F)F)C(=O)[C@]2(Cc2ccccc2)C1
Vd [9]: 16.1 L/kg | AUC at 4 h [10]: 214 ng·h/mL | Tmax [11]: 0.33 h | Activity (CHO [1]): 115% | EC50 [2]: 0.58 nM | half-life [12]: 2.96 h | EC50 [3]: 0.077 nM | bioavailability [13]: 44.8% | EC50 [4]: 0.062 nM | Activity [5]: 96% | EC50 [6]: 0.012 nM | Activity (CHO [7]): 103% | Cmax [14]: 219 ng/mL | half-life [15]: 1.2 h | Activity (CHO [8]; filed as agonist): 106% | clearance [16]: 70.9 mL/min/kg

CC(C)(N)C(=O)N[C@H](COCc1ccccc1)C(=O)N1CCC2=NN(C3COC3)C(=O)[C@]2(Cc2ccccc2)C1
EC50 [2]: 14.7 nM | Activity (CHO [8]; filed as agonist): 99.2%

CC(C)(N)C(=O)N[C@H](COCc1ccccc1)C(=O)N1CCC2=NN(C3CCCCC3)C(=O)[C@]2(Cc2ccccc2)C1
EC50 [2]: 2.63 nM | Activity (CHO [8]; filed as agonist): 137%

CN1N=C2CC3CCC(N3C(=O)[C@@H](COCc3ccccc3)NC(=O)C(C)(C)N)[C@@]2(Cc2ccccc2)C1=O (stereo partly specified)
EC50 [2]: 10.4 nM | Activity (CHO [8]; filed as agonist): 104%

CC(C)(N)C(=O)N[C@H](COCc1ccccc1)C(=O)N1CCC2=NN(C3CCCC3)C(=O)[C@]2(Cc2ccccc2)C1
Activity (CHO [1]): 117% | EC50 [2]: 0.58 nM | EC50 [3]: 0.105 nM | EC50 [4]: 0.051 nM | Activity [5]: 97.2% | EC50 [6]: 0.021 nM | Activity (CHO [7]): 110% | Activity (CHO [8]; filed as agonist): 121%

CN1N=C2C3(CC3)CN(C(=O)[C@@H](COCc3ccccc3)NC(=O)C(C)(C)N)C[C@@]2(Cc2ccccc2)C1=O
EC50 [2]: 29.8 nM | Activity (CHO [8]; filed as agonist): 82.1%

CC(C)(N)C(=O)N[C@H](COCc1ccccc1)C(=O)N1CCC2=NN(C(C)(C)C)C(=O)[C@]2(Cc2ccccc2)C1
Activity (CHO [1]): 123% | EC50 [2]: 1.34 nM | EC50 [3]: 0.071 nM | EC50 [4]: 0.044 nM | Activity [5]: 112% | EC50 [6]: 0.016 nM | Activity (CHO [7]): 99.3% | Activity (CHO [8]; filed as agonist): 143%

CC(C)(N)C(=O)N[C@H](COCc1ccccc1)C(=O)N1CCC2=NOC(=O)[C@]2(Cc2ccccc2)C1
Vd [9]: 22.8 L/kg | Tmax [11]: 0.25 h | EC50 [2]: 0.87 nM | half-life [12]: 1.44 h | Cmax [14]: 54 ng/mL | Activity (CHO [8]; filed as agonist): 106% | clearance [16]: 169 mL/min/kg

CC(C)(N)C(=O)N[C@H](COCc1ccccc1)C(=O)N1CCC2=NN(C(F)F)C(=O)[C@]2(Cc2ccccc2)C1
EC50 [2]: > 1000 nM | Activity (CHO [8]): 11%

CC(C)(N)C(=O)N[C@H](COCc1ccccc1)C(=O)N1CCC2=NN(C3CC3)C(=O)[C@]2(Cc2ccccn2)C1
Activity (Rattus norvegicus [17]): 65.8 ng/mL | Activity (Rattus norvegicus [18]): 54.5 ng/mL | Vd [9]: 3.3 L/kg | Activity (Rattus norvegicus [19]): 220.5 ng/mL | Activity (Rattus norvegicus [20]): 178.4 ng/mL | AUC at 4 h [10]: 186 ng·h/mL | Tmax [11]: 0.25 h | Activity (CHO [1]): 87.4% | Activity (Rattus norvegicus [21]): 41.9 ng/mL | Activity (Rattus norvegicus [22]): 61.1 ng/mL | EC50 [2]: 0.8 nM | half-life [12]: 0.8 h | Activity (Rattus norvegicus [23]): 91.8 ng/mL | EC50 [3]: 0.092 nM | bioavailability [13]: 26.2% | AUC (Rattus norvegicus [24]): 104 ng·h/mL | Activity (Rattus norvegicus [25]): 34.5 ng/mL | EC50 [4]: 0.068 nM | Activity [5]: 114% | Activity (Rattus norvegicus [26]): 168.5 ng/mL | Activity (Rattus norvegicus [27]): 81.8 ng/mL | EC50 [6]: 0.021 nM | Activity (CHO [7]): 104% | Cmax [14]: 139 ng/mL | Activity (Rattus norvegicus [28]): 17.2 ng/mL | half-life [15]: 1.21 h | AUC (Rattus norvegicus [29]): 58.6 ng·h/mL | Activity (CHO [8]; filed as agonist): 123% | clearance [16]: 48 mL/min/kg
